What was measured:
[1] = Long-term/accelerated stability; type: physicochemical
[2] = Crystal form stability study (influencing factor experiments); type: physicochemical; conditions: for Physical and chemical properties (conclusion of influencing factor experiments): high temperatures and high humidities for 30 days
Protocol: Samples of the crystal forms A, B, C, I, J, and K of the compound represented by formula (I) were taken, spread in open containers, and left to stand under conditions of light exposure (4500 Lux), high temperatures (40° C. and 60° C.), and high humidities (RH 75% and RH 92.5%) for 30 days to investigate their stability, and the results are shown in Table 16.

[3] = 40° C., 10 days, open container
[4] = 40° C., 30 days, open container
[5] = 60° C., 10 days, open container
[6] = 60° C., 30 days, open container
[7] = 75% RH, 10 days, open container
[8] = 75% RH, 30 days, open container
[9] = 92.5% RH, 5 days, open container
[10] = 92.5% RH, 10 days, open container
[11] = 92.5% RH, 30 days, open container
[12] = light exposure (4500 Lux), 5 days, open container
[13] = light exposure (4500 Lux), 10 days, open container
[14] = light exposure (4500 Lux), 30 days, open container

## CCc1c(F)ccc2cc(O)cc(-c3nc4c5c(nc(OC[C@@]67CCCN6C[C@H](F)C7)nc5c3F)N3C[C@H]5CC[C@H](N5)[C@H]3CO4)c12 [Crystal form J, 5-Ethyl-6-fluoro-4-((5aS,6S,9R)-1-fluoro-12-(((2R,7aS)-2-fluorotetrahydro-1H-pyrrolizin-7a(5H)-yl)methoxy)-5a,6,7,8,9,10-hexahydro-5H-4-oxa-3,10a,11,13,14-pentaaza-6,9-methanonaphtho[1,8-ab]heptalen-2-yl)naphthalen-2-ol]
[1]; 25° C./60% RH
  Purity % 1 month: 99.5%
  Purity % 2 months: 99.6%
  Purity % 3 months: 99.6%
  Purity % Initial: 99.6%
[1]; 40° C./75% RH
  Purity % 1 month: 99.4%
  Purity % 2 months: 99.3%
  Purity % 3 months: 99.2%
  Purity % Initial: 99.6%
[2]; 40° C., 5 days, open container
  Color and state: Off-white solid
  Crystal form: Did not change
  Purity %: 99.2%
[2]; [3]
  Color and state: Off-white solid
  Crystal form: Did not change
  Purity %: 98.8%
[2]; [4]
  Color and state: Off-white solid
  Crystal form: Did not change
  Purity %: 97.9%
[2]; 60° C., 5 days, open container
  Color and state: Off-white solid
  Crystal form: Did not change
  Purity %: 99.1%
[2]; [5]
  Color and state: Off-white solid
  Crystal form: Did not change
  Purity %: 98.5%
[2]; [6]
  Color and state: Off-white solid
  Crystal form: Did not change
  Purity %: 97.4%
[2]; 75% RH, 5 days, open container
  Color and state: Off-white solid
  Crystal form: Did not change
  Purity %: 99.6%
[2]; [7]
  Color and state: Off-white solid
  Crystal form: Did not change
  Purity %: 99.6%
[2]; [8]
  Color and state: Off-white solid
  Crystal form: Did not change
  Purity %: 99.5%
[2]; [9]
  Color and state: Off-white solid
  Crystal form: Did not change
  Purity %: 99.6%
[2]; [10]
  Color and state: Off-white solid
  Crystal form: Did not change
  Purity %: 99.5%
[2]; [11]
  Color and state: Off-white solid
  Crystal form: Did not change
  Purity %: 99.5%
[2]; Initial, 0 days
  Color and state: Off-white solid
  Crystal form: Crystal form J
  Purity %: 99.6%
[2]
  Physical and chemical properties (conclusion of influencing factor experiments): good physical and chemical properties
[2]; [12]
  Color and state: Off-white solid
  Crystal form: Did not change
  Purity %: 98.1%
[2]; [13]
  Color and state: Pale yellow solid
  Crystal form: Did not change
  Purity %: 95.5%
[2]; [14]
  Color and state: Pale yellow solid
  Crystal form: Did not change
  Purity %: 93.0%

## CCc1c(F)ccc2cc(O)cc(-c3nc4c5c(nc(OC[C@@]67CCCN6C[C@H](F)C7)nc5c3F)N3C[C@H]5CC[C@H](N5)[C@H]3CO4)c12 [Crystal form K, 5-Ethyl-6-fluoro-4-((5aS,6S,9R)-1-fluoro-12-(((2R,7aS)-2-fluorotetrahydro-1H-pyrrolizin-7a(5H)-yl)methoxy)-5a,6,7,8,9,10-hexahydro-5H-4-oxa-3,10a,11,13,14-pentaaza-6,9-methanonaphtho[1,8-ab]heptalen-2-yl)naphthalen-2-ol]
[1]; 25° C./60% RH
  Purity % 1 month: 99.7%
  Purity % 2 months: 99.8%
  Purity % 6 months: 99.7%
  Purity % Initial: 99.8%
[1]; 40° C./75% RH
  Purity % 1 month: 99.7%
  Purity % 2 months: 99.7%
  Purity % 6 months: 99.4%
  Purity % Initial: 99.8%
[2]; 40° C., 5 days, open container
  Color and state: Off-white solid
  Crystal form: Did not change
  Purity %: 99.2%
[2]; [3]
  Color and state: Off-white solid
  Crystal form: Did not change
  Purity %: 98.5%
[2]; [4]
  Color and state: Off-white solid
  Crystal form: Did not change
  Purity %: 97.0%
[2]; 60° C., 5 days, open container
  Color and state: Off-white solid
  Crystal form: Did not change
  Purity %: 99.1%
[2]; [5]
  Color and state: Off-white solid
  Crystal form: Did not change
  Purity %: 98.5%
[2]; [6]
  Color and state: Off-white solid
  Crystal form: Did not change
  Purity %: 97.0%
[2]; 75% RH, 5 days, open container
  Color and state: Off-white solid
  Crystal form: Did not change
  Purity %: 99.8%
[2]; [7]
  Color and state: Off-white solid
  Crystal form: Did not change
  Purity %: 99.7%
[2]; [8]
  Color and state: Off-white solid
  Crystal form: Did not change
  Purity %: 99.7%
[2]; [9]
  Color and state: Off-white solid
  Crystal form: Did not change
  Purity %: 99.8%
[2]; [10]
  Color and state: Off-white solid
  Crystal form: Did not change
  Purity %: 99.7%
[2]; [11]
  Color and state: Off-white solid
  Crystal form: Did not change
  Purity %: 99.7%
[2]; Initial, 0 days
  Color and state: Off-white solid
  Crystal form: Crystal form K
  Purity %: 99.8%
[2]
  Physical and chemical properties (conclusion of influencing factor experiments): good physical and chemical properties
[2]; [12]
  Color and state: Off-white solid
  Crystal form: Did not change
  Purity %: 99.3%
[2]; [13]
  Color and state: Off-white solid
  Crystal form: Did not change
  Purity %: 98.9%
[2]; [14]
  Color and state: Off-white solid
  Crystal form: Did not change
  Purity %: 97.9%

Source: patent US20260209250A1, “CRYSTAL FORM OF KRAS G12D INHIBITOR AND PREPARATION METHOD THEREFOR” (priority 2022, published 2026)
